Converted amounts (≈) assume the structure as drawn. Read-outs that look alike come from different tables or passages of the source. Residues, ends and D or L forms follow the SMILES beside them.
What was measured:
[1] = Cytotoxicity, Alamar Blue (resazurin) assay; format: cell-based, human; settings: human
Procedure: (§1) Cytotoxicity to HEK293 and HepG2 cells was determined using the Alamar Blue (resazurin) assay,[55],[56] with 24 h of incubation and either 1 or 10% serum concentration. Full assay details are included in the Supporting Information.
(§2) Cytotoxicity. Cytotoxicity to HEK293 and HepG2 cells was determined using the Alamar Blue (resazurin) assay,3, 4 For the assays supplemented with 1 % FBS as final concentration the cells were seeded one day prior to the assay (3,000 per 20 µL for HEK293 and 4,000 per 20 µL for HepG2) with DMEM + 2 % FBS. The compounds were prepared as described below, using DMEM with no FBS instead to give the final FBS concentration of 1 %.
(§3) The highest concentration the compounds were tested was 300 µg/mL. A dilution series of 1:3 fold steps in DMEM (GIBCOPInvitrogen, cat. no. 11995P073) + 10 % FBS was created (concentration range of 600 µg/mL – 0.28 µg/mL), and 20 µL of these 2x concentrated compound dilutions were added in duplicates to wells of a black wall, clear bottom 384Pwells cell culture plate. For the assays with 1 % FBS the compounds in 0 % FBS were added to the existing cell plates in 2 % FBS. 200 µM Tamoxifen (Sigma T5648) served as negative control and in addition a serial dilution of tamoxifen, starting at 200 µM (74 µg/mL), was included as a dose response control (1 in 2 dilution series for tamoxifen). For the assay with 10 % FBS, HepG2 cells were seeded at 5000 cells per well, in a volume of 20 µL in DMEM medium + 10 % of FBS and added to the 20 µL of compound solution (total volume of 40 µL), resulting in a final compound concentration range of 300 µg/mL to 0.14 µg/mL.
(§4) Cells were incubated together with the compounds for 20 h at 37 °C, 5 % CO2.
(§5) After the incubation, 5 µL of 100 µM (25 µg/mL) resazurin dissolved in PBS (final concentration was approximately 11 µM) was added to each well. The plates were then incubated for 3 h at 37 °C, 5 % CO2. The fluorescence intensity was read using the TECAN Infinite M1000 PRO with excitation/emission 560/590. The data was analysed by Graph Pad Prism software. Results are presented as the average percentage of control ± SD for each set of duplicate wells using the following equation: Cell survival % = (FISAMPLE – FINegative/FIUNTREATED –FINegative)*100. (100 µg/mL tamoxifen was set as 0 % survival, media

human erythrocytes [2] = settings: red cells of human, 3 h
HEK293 cells = experiment: Cytotoxicity, Alamar Blue (resazurin) assay; format: cell-based, human; settings: HEK293; highest concentration (300 μM) tested
Procedure: as §1, §2, §3, §4, §5

HepG2 cells = experiment: Cytotoxicity, Alamar Blue (resazurin) assay; format: cell-based, human; settings: HepG2; highest concentration (300 μM) tested
Procedure: as §1, §2, §3, §4, §5

human erythrocytes [3] = experiment: Hemolysis assay; settings: 3 h, relative to 100% hemolysis by 1% Triton X-100
[4] = HEK293 cells, HEK293, 1% FBS, read-out: cytotoxicity HEK293 1% FBS
[5] = HEK293 cells, HEK293, 10% FBS, read-out: cytotoxicity HEK293 10% FBS
[6] = HepG2 cells, HepG2, 1% FBS, read-out: cytotoxicity HepG2 1% FBS
[7] = HepG2 cells, HepG2, 10% FBS, read-out: cytotoxicity HepG2 10% FBS

SMILES	CC50 at 24 h [1, 4] [µg/mL]	CC50 at 24 h [1, 5] [µg/mL]	CC50 at 24 h [1, 6] [µg/mL]	CC50 at 24 h [1, 7] [µg/mL]	hemolysis (%) at 300 μg/mL (human erythrocytes [2]) [%]	cytotoxicity at the highest concentration tested (HEK293 cells)	cytotoxicity at the highest concentration tested (HepG2 cells)	hemolysis (%) at 300 μg/mL (human erythrocytes [3])
CC(C)[C@@H]1NC(=O)[C@H](CCCNC(=N)N)NC(=O)[C@H](Cc2ccccc2)NC(=O)[C@@H](NC(=O)[C@H](Cc2c[nH]c3ccccc23)NC(=O)[C@H](CCCNC(=N)N)NC(=O)[C@@H](N)CCCNC(=N)N)CSSC[C@@H](C(=O)N[C@@H](CCCNC(=N)N)C(N)=O)NC(=O)[C@H](CCCCN)NC(=O)[C@H](CCCNC(=N)N)NC(=O)[C@H](Cc2ccc(O)cc2)NC(=O)[C@@H]2CSSC[C@H](NC1=O)C(=O)N[C@@H](Cc1ccc(O)cc1)C(=O)N[C@@H](CCCNC(=N)N)C(=O)NCC(=O)N[C@@H](Cc1ccccc1)C(=O)N2 [polyphemusin-1] (HELM PEPTIDE1{R.R.W.C.F.R.V.C.Y.R.G.F.C.Y.R.K.C.R.[am]}$PEPTIDE1,PEPTIDE1,4:R3-17:R3|PEPTIDE1,PEPTIDE1,8:R3-13:R3$$$V2.0)	36.6 ± 1.4 (≈ 14.9 µM)	188.5 ± 1.1 (≈ 76.8 µM)	36.5 ± 8.6 (≈ 14.9 µM)	254 ± 14.2 (≈ 104 µM)				
[H][C@]12CSSC[C@]([H])(NC(=O)[C@]([H])([C@@H](C)CC)NC(=O)CNC(=O)[C@H](CCCNC(=N)N)NC(=O)[C@H](Cc3ccc(O)cc3)NC1=O)C(=O)N[C@@H](Cc1ccc(O)cc1)C(=O)N[C@@H](CCCNC(=N)N)C(=O)N[C@@H](CCCNC(=N)N)C(=O)N[C@H](C(=O)N[C@@H](CCCNC(=N)N)C(N)=O)CSSC[C@H](NC(=O)[C@H](Cc1c[nH]c3ccccc13)NC(=O)[C@@H](N)CCCCN)C(=O)N[C@@H](Cc1ccccc1)C(=O)N[C@@H](CCCNC(=N)N)C(=O)N[C@@H](C(C)C)C(=O)N2 [tachyplesin-1] (HELM PEPTIDE1{K.W.C.F.R.V.C.Y.R.G.I.C.Y.R.R.C.R.[am]}$PEPTIDE1,PEPTIDE1,3:R3-16:R3|PEPTIDE1,PEPTIDE1,7:R3-12:R3$$$V2.0)	94.7 ± 1.1 (≈ 41.8 µM)	> 300	65.7 ± 1.5 (≈ 29 µM)	> 300	27.8 ± 3.9			
CC(C)[C@@H]1NC(=O)CNC(=O)[C@H](CC(N)=O)NC(=O)[C@H](CCCNC(=N)N)NC(=O)[C@H](Cc2ccc(O)cc2)NC(=O)[C@H](C(C)C)NC(=O)[C@@H]2CSSC[C@H](NC(=O)[C@H](C(C)C)NC(=O)[C@H](CCCNC(=N)N)NC1=O)C(=O)N[C@@H](Cc1ccc(O)cc1)C(=O)N[C@@H](CCCNC(=N)N)C(=O)N[C@@H](CCCNC(=N)N)C(=O)N[C@H](C(=O)N[C@@H](CC(N)=O)C(=O)O)CSSC[C@H](NC(=O)[C@H](Cc1ccccc1)NC(=O)CN)C(=O)N[C@@H](Cc1c[nH]c3ccccc13)C(=O)N[C@@H](Cc1ccc(O)cc1)C(=O)N[C@@H](C(C)C)C(=O)N2 [arenicin-3] (HELM PEPTIDE1{G.F.C.W.Y.V.C.V.Y.R.N.G.V.R.V.C.Y.R.R.C.N}$PEPTIDE1,PEPTIDE1,3:R3-20:R3|PEPTIDE1,PEPTIDE1,7:R3-16:R3$$$V2.0)	105 ± 1.8 (≈ 40 µM)	> 300	95.2 ± 4.1 (≈ 36.4 µM)	> 300	4.4 ± 1.1			
CC[C@H](C)[C@H](NC(=O)[C@@H](NC(=O)[C@@H]1CCCN1C(=O)[C@@H](NC(=O)[C@@H]1CCCN1C(=O)[C@H](CCCCN)NC(=O)[C@H](CCCCN)NC(=O)[C@H](CO)NC(=O)CN)C(C)C)[C@@H](C)CC)C(=O)N[C@@H](Cc1ccc(O)cc1)C(=O)N[C@H]1CSSC[C@@H](C(=O)N[C@@H](CCC(N)=O)C(=O)N[C@@H](CCCNC(=N)N)C(=O)N[C@@H](CCSC)C(N)=O)NC(=O)[C@H](CCCCN)NC(=O)CNC(=O)[C@H]([C@@H](C)O)NC(=O)[C@H](CCCNC(=N)N)NC(=O)[C@H](CCCNC(=N)N)NC(=O)[C@H](CC(N)=O)NC1=O [thanatin]	> 300	> 300	> 300	> 300		nontoxic	nontoxic	nonhemolytic

Reference: PMC4906375, “Contribution of Amphipathicity and Hydrophobicity to the Antimicrobial Activity and Cytotoxicity of β-Hairpin Peptides” (ACS Infectious Diseases, 2016)
